Assay results from PubChem BioAssay AID2060511 (Molecular Pharmacology Branch, DTP, NCI, 2025).

Tested on: 422866-222-R5-J1-PDC spheroids with HUVEC/MSC, viability
Assay: Anticancer human tumor 422866-222-R5-J1-PDC patient-derived pancreatic adenocarcinoma cell line growth inhibition [GQUAD]
Conditions: for IC50: curve of first compound; for viability, T/C: stronger effect = lower value
Outline: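 Viability of tumor cells grown as complex spheroids with endothelial and stromal cells, exposed to drug combinations. Top concentration at or near clinical Cmax (else 10 microM), diluted in half-log increments.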

[1] = second compound 0.0316 µM, first compound 0.0316 µM
[2] = second compound 0.0316 µM, first compound 0.1 µM
[3] = second compound 0.0316 µM, first compound 0.316 µM
[4] = second compound 0.0316 µM, first compound 1 µM
[5] = second compound 0.0316 µM, first compound 3.16 µM
[6] = second compound 0.0316 µM, first compound 10 µM
[7] = second compound 0.1 µM, first compound 0.0316 µM
[8] = second compound 0.1 µM, first compound 0.1 µM
[9] = second compound 0.1 µM, first compound 0.316 µM
[10] = second compound 0.1 µM, first compound 1 µM
[11] = second compound 0.1 µM, first compound 3.16 µM
[12] = second compound 0.1 µM, first compound 10 µM
[13] = second compound 0.316 µM, first compound 0.0316 µM
[14] = second compound 0.316 µM, first compound 0.1 µM
[15] = second compound 0.316 µM, first compound 0.316 µM
[16] = second compound 0.316 µM, first compound 1 µM
[17] = second compound 0.316 µM, first compound 3.16 µM
[18] = second compound 0.316 µM, first compound 10 µM
[19] = second compound 1 µM, first compound 0.0316 µM
[20] = second compound 1 µM, first compound 0.1 µM
[21] = second compound 1 µM, first compound 0.316 µM
[22] = second compound 1 µM, first compound 1 µM
[23] = second compound 1 µM, first compound 3.16 µM
[24] = second compound 1 µM, first compound 10 µM
[25] = second compound 3.16 µM, first compound 0.0316 µM
[26] = second compound 3.16 µM, first compound 0.1 µM
[27] = second compound 3.16 µM, first compound 0.316 µM
[28] = second compound 3.16 µM, first compound 1 µM
[29] = second compound 3.16 µM, first compound 3.16 µM
[30] = second compound 3.16 µM, first compound 10 µM
[31] = second compound 10 µM, first compound 0.0316 µM
[32] = second compound 10 µM, first compound 0.1 µM
[33] = second compound 10 µM, first compound 0.316 µM
[34] = second compound 10 µM, first compound 1 µM
[35] = second compound 10 µM, first compound 3.16 µM
[36] = second compound 10 µM, first compound 10 µM
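Also: spheroids exposed to compounds for seven days before reading.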
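For viability, T/C in this document: percent viability relative to DMSO vehicle control taken as 100%.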

With COc1ccc([C@@H](O)c2cc(-c3ncnc4cc(N5CCOCC5)ccc34)c(F)cc2Cl)nn1 + CN(C)c1ccc(Nc2c3ccc(NC(=O)CCN4CCCC4)cc3nc3cc(NC(=O)CCN4CCCC4)ccc23)cc1 the IC50 (second compound 0.0316 µM) was 2850 nM, the IC50 (second compound 0.1 µM) was 2240 nM and the IC50 (second compound 0.316 µM) was 2360 nM. For the same compound, the IC50 (second compound 1 µM) was 2030 nM, the IC50 (second compound 3.16 µM) was 1800 nM and the IC50 (second compound 10 µM) was 876 nM. For the same compound, the viability, T/C [1] was 97.8%, the viability, T/C [2] was 96.5% and the viability, T/C [3] was 73.9%. It also gave a viability, T/C [4] of 76.7%, a viability, T/C [5] of 42.2% and a viability, T/C [6] of 34.5%. It also gave a viability, T/C [7] of 98.8%, a viability, T/C [8] of 86.9% and a viability, T/C [9] of 79.1%. It also gave a viability, T/C [10] of 63.5%, a viability, T/C [11] of 41.5% and a viability, T/C [12] of 38.5%. It also gave a viability, T/C [13] of 90.6%, a viability, T/C [14] of 91.2% and a viability, T/C [15] of 75%. For the same compound, the viability, T/C [16] was 67.1%, the viability, T/C [17] was 43.4% and the viability, T/C [18] was 31.8%. It also gave a viability, T/C [19] of 80.2%, a viability, T/C [20] of 67.3% and a viability, T/C [21] of 76%. The viability, T/C [22] was 57.2%, the viability, T/C [23] was 45.2% and the viability, T/C [24] was 34.8%. It also gave a viability, T/C [25] of 69.7%, a viability, T/C [26] of 81.6% and a viability, T/C [27] of 65.5%. The viability, T/C [28] was 57.9%, the viability, T/C [29] was 43.1% and the viability, T/C [30] was 29.9%. The viability, T/C [31] was 92.2%, the viability, T/C [32] was 81.3% and the viability, T/C [33] was 67.2%. The viability, T/C [34] was 44.6%, the viability, T/C [35] was 44% and the viability, T/C [36] was 34.9%.

O=C(c1cc(Cc2n[nH]c(=O)c3ccccc23)ccc1F)N1CCN(C(=O)C2CC2)CC1 + CN(C)c1ccc(Nc2c3ccc(NC(=O)CCN4CCCC4)cc3nc3cc(NC(=O)CCN4CCCC4)ccc23)cc1 showed an IC50 (second compound 0.0316 µM) of over 10000 nM, an IC50 (second compound 0.1 µM) of over 10000 nM and an IC50 (second compound 0.316 µM) of over 10000 nM. For the same compound, the IC50 (second compound 1 µM) was over 10000 nM, the IC50 (second compound 3.16 µM) was over 10000 nM and the IC50 (second compound 10 µM) was over 10000 nM. For the same compound, the viability, T/C [1] was 108%, the viability, T/C [2] was 95.8% and the viability, T/C [3] was 96.3%. The viability, T/C [4] was 99.7%, the viability, T/C [5] was 75.7% and the viability, T/C [6] was 70.1%. It also gave a viability, T/C [7] of 90.3%, a viability, T/C [8] of 95.3% and a viability, T/C [9] of 84.9%. The viability, T/C [10] was 83%, the viability, T/C [11] was 93.2% and the viability, T/C [12] was 67.5%. It also gave a viability, T/C [13] of 86.4%, a viability, T/C [14] of 107% and a viability, T/C [15] of 79.7%. It also gave a viability, T/C [16] of 83.3%, a viability, T/C [17] of 79.8% and a viability, T/C [18] of 70.4%. The viability, T/C [19] was 80%, the viability, T/C [20] was 79.3% and the viability, T/C [21] was 78.3%. The viability, T/C [22] was 77.4%, the viability, T/C [23] was 74.5% and the viability, T/C [24] was 67.5%. The viability, T/C [25] was 87%, the viability, T/C [26] was 92.3% and the viability, T/C [27] was 86.5%. The viability, T/C [28] was 85.7%, the viability, T/C [29] was 85% and the viability, T/C [30] was 80.6%. For the same compound, the viability, T/C [31] was 81.8%, the viability, T/C [32] was 83.6% and the viability, T/C [33] was 87.4%. The viability, T/C [34] was 79.5%, the viability, T/C [35] was 83.6% and the viability, T/C [36] was 79.9%.
